# Assay results from US8410309B2, “Phenoxy carboxylic acid compounds and compositions for delivering active agents” (Emisphere Technologies, Inc., priority 1999, dated 2013).
# Several values for one entry are separate records, joined by “and”; a condition that tells them apart may be missing. Equal entries are not always repeated.
# Experiments:
# [1] = Heparin oral/intracolonic delivery, clotting time by activated partial thromboplastin time (APTT); assay type: in vivo, Sprague-Dawley rats; details: IC (intracolonic), rats; delivery agent compound 50 mg/kg, heparin 25 mg/kg, volume dose 1 ml; baseline about 20 seconds
# Experimental: Oral gavage (PO) and/or intracolonic (IC) dosing solutions containing a delivery agent compound and heparin sodium USP were prepared in 25% aqueous propylene glycol. […] This dry mixture was dissolved in 25% v/v aqueous propylene glycol, vortexed, and placed in a sonicator (about 37° C.). The pH was adjusted to about 7 (6.5 to 8.5) with aqueous NaOH (2N). The dosing solution was sonicated to produce a clear solution. The final volume was adjusted to about 3.0 ml.
# (§1) The typical dosing and sampling protocols were as follows. […] The dosing solution was expressed slowly into the colon by pressing the syringe plunger.
# Citrated blood samples were collected by cardiac puncture following the administration of ketamine (88 mg/kg), typically at 0.25, 0.5, 1.0 and 1.5 hours after dosing. Heparin absorption was verified by an increase in clotting time measured by the activated partial thromboplastin time (APTT) according to the method of Henry, J. B., Clinical Diagnosis and Management by Laboratory Methods, Philadelphia, Pa., W.B. Saunders (1979). Previous studies indicated baseline values of about 20 seconds.
# [2] = Salmon calcitonin (sCT) oral delivery, serum sCT by EIA; details: rats, delivery agent compound dose 150 mg/kg, sCT dose 30 μg/kg
# [3] = Recombinant human growth hormone (rhGH) oral delivery, serum rhGH by immunoassay; details: oral gavage, rats, volume dose 1 ml
# Experimental: Oral gavage (PO) dosing solutions of delivery agent compound and rhGH in phosphate buffer were prepared by mixing. A solution of the delivery agent compound was made either with the sodium salt of the delivery agent compound or by converting the free acid to its sodium salt.
# The typical dosing and sampling protocols were as follows. Male Sprague-Dawley rats weighing 200-250 g were fasted for 24 hours and administered ketamine (44 mg/kg) and chlorpromazine (1.5 mg/kg) 15 minutes prior to dosing and again as needed to maintain anesthesia. A dosing group of five animals was administered one of the dosing solutions. An 11 cm Rusch 8 French catheter was adapted to a 1 ml syringe with a pipette tip. The syringe was filled with dosing solution by drawing the solution through the catheter, which was then wiped dry. The catheter was placed down the esophagus leaving 1 cm of tubing past the incisors. The dosing solution was administered by pressing the syringe plunger.
# Blood samples were collected serially from the tail artery typically at time=15, 30, 45, 60 and 90 minutes. The five samples from each time period were pooled (except for those samples for which standard deviation (SD) and standard error (SE) are reported). Serum rHGH concentrations were quantified by an rHGH immunoassay test kit (Kit # K1F4015 from Genzyme Corporation Inc., Cambridge, Mass.).
# [4] = Insulin oral delivery, serum human insulin by ELISA; details: rats
# Experimental: Oral dosing (PO) compositions of delivery agent compound and human zinc insulin (minimum 26 IU/mg available from Calbiochem—Novabiochem Corp, La Jolla, Calif.) were prepared in deionized water. […] The pH was adjusted to about 7 to 8.5 with NaOH or HCl. […] The final delivery agent compound dose, insulin dose and dose volume amounts are listed below in Table 8.
# The typical dosing and sampling protocols were as follows.
# Serum insulin levels were determined with an Insulin ELISA Test Kit (Kit # DSL-10-1600 from Diagnostic Systems Laboratories, Inc., Webster, Tex.), modifying the standard protocol in order to optimize the sensitivity and linear range of the standard curve for the volumes and concentrations of the samples used in the present protocol. […] The five values for each time point were averaged and the results plotted as serum insulin concentration versus time.
# [5] = Low molecular weight heparin (LMWH) oral/intracolonic delivery, plasma LMWH by anti-Factor Xa assay; assay type: in vivo, Sprague-Dawley rats; details: IC, rats, LMWH 750 IU/kg, 1 ml/kg
# Experimental: Oral dosing (PO) and/or intracolonic (IC) compositions containing a delivery agent compound and low molecular weight heparin (LMWH) were prepared in 25% aqueous propylene glycol. […] Typically, the delivery agent compound and LMWH (Parnaparin, 91 IU/mg average molecular weight about 5,000, available from Opocrin, Modena, Italy) (typically 90-105 IU/mg, average molecular weight about 5,000) were mixed by vortex as dry powders. This dry mixture was dissolved in 25% v/v aqueous propylene glycol, vortexed, and placed in a sonicator (37° C.) to produce a clear solution. The pH was adjusted to about 7 (6.5-8.5) with 2N aqueous NaOH. The dosing solution was sonicated to produce a clear solution. The final volume was adjusted to 3.0 ml.
# as §1
# Citrated blood samples were collected by cardiac puncture following the administration of ketamine (88 mg/kg), typically at 0.5, 1.0, 2.0, 3.0 and 4.0 hours after dosing. LMWH absorption was verified by an increase in plasma LMWH measured by the anti-Factor Xa assay CHROMOSTRATE™ Heparin anti-Xa assay (available from Organon Teknika Corporation, Durham, N.C.). […] The peak of these mean plasma LMWH concentrations is reported below in Table 5.
# [6] = delivery agent compound 200 mg/kg, rhGH 3 mg/kg
# [7] = delivery agent compound 200 mg/kg, insulin 0.5 mg/kg, 1 ml/kg
# [8] = delivery agent compound 50 mg/kg
# [9] = delivery agent compound 25 mg/kg
SMILES,"Mean Peak Serum [rhGH] [3, 6] [ng/mL]","Mean Peak Serum [INS] ± SD [4, 7] [μU/ml]","Mean Peak Plasma LMWH Concentration ± SD [5, 8] [IU/ml]",Mean Peak APTT ± SD [1],also measured
O=C(O)CCCOc1ccccc1O [Compound 4],12.6,–,–,40.3 ± 17.8 s and 23.076 ± 4.72 s and 37.148 ± 39.67 s,"Mean Peak Serum sCT (pg/ml ± SD) (SE) ([2]; dose volume 1 (ml), 150 mg/kg): 187 ± 177 pg/mL and 195 ± 436 pg/mL"
O=C(O)CCCCCCCCCOc1ccccc1O [Compound 8],4.88,13.14 ± 6.81,–,251.94 ± 67.96 s,"Mean Peak Serum sCT (pg/ml ± SD) (SE) ([2]; dose volume 1 (ml), 150 mg/kg): 166 ± 190 pg/mL and 194 ± 239 pg/mL and 327 ± 323 pg/mL; Mean Peak Serum sCT (pg/ml ± SD) (SE) ([2]; dose volume 2 (ml)): 36 ± 49 pg/mL"
CC(=O)c1ccccc1OCCCC(=O)O [Compound 9],1,–,0.474 ± 0.095,21.45 ± 1.71 s,–
CC=Cc1ccccc1OCCCCCCCC(=O)O [Compound 18],223,–,–,–,"Mean Peak Serum sCT (pg/ml ± SD) (SE) ([2]; dose volume 2 (ml)): 14 ± 4183 pg/mL; Mean Peak Serum [rhGH] ([3]; delivery agent compound 162 mg/kg, rhGH 2.6 mg/kg): 3.1 ng/mL"
Nc1ccccc1OCCCCCCCC(=O)O [Compound 19],39.5,4.32 ± 1.39,0.65 ± 0.37,–,–
O=C(O)CCCCCCCOc1ccccc1[N+](=O)[O-] [Compound 20],22.6,27.68 ± 12.5,–,–,"Mean Peak Serum sCT (pg/ml ± SD) (SE) ([2]; dose volume 1 (ml), 150 mg/kg): 138 ± 107 pg/mL and 85 ± 82 pg/mL and 96 ± 135 pg/mL"
Nc1ccccc1OCCCCC(=O)O [Compound 21],19.6,14.46 ± 21.61,–,–,–
Nc1cc(Cl)ccc1OCCCCCCCC(=O)O [Compound 22],0,24.16 ± 28.11,1.842 ± 0.205,287.9 ± 120.1 s,"Mean Peak Plasma LMWH Concentration ± SD ([5]; delivery agent compound 10 mg/kg): 0.396 ± 0.153 IU/ml; Mean Peak Plasma LMWH Concentration ± SD [5, 9]: 1.496 ± 0.153 IU/ml"
Nc1cc(Cl)ccc1OCCCCC(=O)O [Compound 23],–,–,–,–,"Mean Peak Serum sCT (pg/ml ± SD) (SE) ([2]; dose volume 1 (ml), 150 mg/kg): 161 ± 150 pg/mL and 122 ± 273 pg/mL"
CC(=O)Nc1ccccc1OCCCCCCCC(=O)O [Compound 24],1.76,–,–,–,–
CCC(=O)c1ccccc1OCCCCCC(=O)O [Compound 27],12.9,–,1.622 ± 0.265,–,Mean Peak Serum sCT (pg/ml ± SD) (SE) ([2]; dose volume 1 (ml)): 163 ± 106 pg/mL

# More lines, main results first:
"Mean Peak Serum [rhGH] [3, 6] [ng/mL]","Mean Peak Serum [INS] ± SD [4, 7] [μU/ml]","Mean Peak Plasma LMWH Concentration ± SD [5, 8] [IU/ml]",SMILES,Mean Peak APTT ± SD [1],also measured
8.3,–,0.262 ± 0.106,CCC(=O)c1ccccc1OCCCC(=O)O [Compound 26],76.7 s and 41.534 ± 25.56 s,"Mean Peak Serum [INS] ± SD ([4]; delivery agent compound 100 mg/kg, insulin 3 mg/kg, 0.5 ml/kg): 240.5 ± 528.29 μU/ml"
–,–,1.64 ± 0.45,CCC(=O)c1ccccc1OCCCCCCCC(=O)O [Compound 28],143.6 ± 44 s and 251.1 ± 109.34 s,"Mean Peak Plasma LMWH Concentration ± SD [5, 9]: 1.43 ± 0.31 IU/ml; Mean Peak Serum sCT (pg/ml ± SD) (SE) ([2]; dose volume 1 (ml)): 138 ± 90 pg/mL"
0,–,–,CCC(=O)c1ccccc1OCCCCCCCCCC(=O)O [Compound 29],105.01 ± 115.28 s and 111.46 ± 108.58 s,–
–,132.3 ± 154.5,–,COc1ccccc1OCCCCCCCC(=O)O [Compound 35],65.8 ± 35.5 s,–
0,–,–,CC(O)c1ccccc1OCCCCCCCC(=O)O (stereo not drawn) [Compound 36],–,Mean Peak Serum sCT (pg/ml ± SD) (SE) ([2]; dose volume 1 (ml)): 0 ± 62 pg/mL
29,–,–,CC(C)(O)c1ccccc1OCc1ccc(C(=O)O)cc1 [Compound 37],–,–
